Measurements: US20260325500A1, “METHODS AND COMPOSITIONS FOR TREATING ACUTE STRESS DISORDER” (BioXcel Therapeutics, Inc., priority 2022, published 2026)
Structures can show the parent of a compound that is named as a salt. Marks after values point to notes of the source that are not given here.

Columns and labels:
[1] = test system: Yohimbine-induced noradrenergic hyperarousal in Wistar rats; experiment: Elevated plus maze, yohimbine-induced noradrenergic hyperarousal, dose response (Example 3); type: in vivo; settings: 30 min
Text: Background: Yohimbine is an alpha 2-adrenergic receptor antagonist reported to trigger panic attacks in healthy volunteers and to exacerbate symptoms in patients with panic disorder (Charney et al., 1992 Acta Psychiatr Scand., Vol. 86 (4): 273-282). Peripheral administration of Yohimbine causes noradrenergic mediated hyperarousal in rats as assessed by the EPM paradigm.
Rationale: The drug yohimbine is a natural product used to test a specific pathway, noradrenergic-mediated hyper-arousal. It is well established that yohimbine is an alpha2-adrenergic receptor antagonist and activates the locus coeruleus (LC) and increases noradrenergic signaling (the opposite of alpha2-adrenergic agonists like dexmedetomidine and clonidine). Increased LC activity and noradrenergic signaling makes animals anxious and agitated which can be measured by using the elevated plus maze. In the elevated plus maze, rodents were in the closed arms and explored the open arms depending on their anxiety and agitation (rats and mice normally explore their environments extensively when calm). […] This behavior is correlated to increased level of anxiety caused by noradrenergic mediated hyperarousal.
(§1) Animal groups: Rats were distributed in 9 different experimental groups with 12 […] per group as illustrated in Table 6. Each experimental group was also coded so that the experimenter became unaware of the true experimental group at the time EPM trial.
Acclimatization: Male Wistar rats (Janvier; Le Genest St Isle-France) were used for the study. They were purchased at a body weight of 150 g and reached a body weight of about 220 g at the time of use. They were group-housed (3-4 rats per cage) and maintained in a room with controlled temperature (21-22° C.) and a reversed light-dark cycle (12 h/12 h; lights on: 17:30-05:30; lights off: 05:30-17:30).
Drug preparation: All compounds/drugs were prepared in normal saline (0.9% NaCl).
Yohimbine was prepared at a solution of 2.5 mg/mL which when injected i.p. at a dosage volume of 1 mL/kg results in a dose of 2.5 mg/kg. Diazepam was prepared at a solution of 1 mg/mL which when injected i.p. at a dosage volume of 1 mL/kg results in a dose of 1 mg/kg. Latrepirdine dihydrochloride hydrate was prepared at a solution of 7.5, 2.5, 0.75 and 0.25 mg/mL which when injected i.m. at a volume of 100 μL for a rat of 250 g results in doses of 3; 1; 0.3 and 0.1 mg/kg; respectively. Latrepirdine dihydrochloride hydrate was also prepared at […] which when administrated i.p. at a dosage volume of 1 mL/kg results in a dose of 3 mg/kg.
Experimental procedure: The rats were randomly assigned to one of the different experimental groups. Each animal was identified by its group name, cage number, series (day) of experiment, and a number (from 1 to 9) written with permanent ink on its tail. They were handled by an experimenter for about 3 min each day during 1 week prior to the day of EPM trial. The apparatus was a PVC maze covered with Plexiglas and subdivided into four equal exploratory arms (40×10 cm), which were all interconnected by a small platform (10×10 cm). The apparatus was placed 65 cm above the floor. Two arms were opened, and two others were closed with wall (high: 10 cm). After compound administration, rat was placed on the platform opposite a closed arm. The number of entries and the time spent in each arm were recorded during a 5 min period. The animal was considered as entered in an arm when it placed its four paws in the arm. The apparatus was cleaned between each animal using alcohol (70%). Urine and feces were removed from the maze. During the trials, animal handling and the visibility of the operator were minimized as much as possible.
Statistical analysis: Analysis of variance (ANOVA) was performed on the result data. Fisher's PLSD was used for pairwise comparisons and p value≤0.05 were considered significant. […]

[2] = test system: CCK-4 induced panic anxiety in rats; experiment: Elevated plus maze, CCK-4 induced panic anxiety (Example 8); type: in vivo, Wistar rats; settings: diazepam 1 mg/kg; CCK4 0.2 mg/kg i.p.
Text: Rationale: In the past two decades panic induction with cholecystokinin-tetrapeptide (CCK-4) as an experimental model of human anxiety has become a focus of intensive research. CCK-4 is a synthetic analog of the endogenous neuropeptide cholecystokinin (CCK), which has been found in different brain regions. Particularly, high concentrations of CCK have been detected in regions that have been implicated in the mediation of panic attacks such as the cerebral cortex, amygdala, hippocampus, and brainstem nuclei. CCK-4 dose dependently induces panic attacks in healthy controls. Thus, CCK-4 has been postulated to fulfil the criteria for an ideal and valid panicogenic agent. […] Therefore, the CCK-4 challenge paradigm can serve as a useful tool to evaluate the anti-panic potential of novel anxiolytic compounds.
as §1, with “groups: Male Wistar” for “groups:”, “Rats were purchased at a body weight of 150 g and reached a body weight of about 220 g at the time of use. Animals” for “Rats”, “6” for “9”, “11.” for “6.”
Study drugs: All compounds/drugs were prepared in saline (0.9% NaCl).
CCK-4 was prepared at a solution of 0.2 mg/ml which when injected i.p. at a dosage volume of 1 ml/kg results in a dose of 0.2 mg/kg.
Diazepam was prepared at a solution of 1 mg/ml which when injected i.p. at a dosage volume of 1 ml/kg results in a dose of 1 mg/kg.
Latrepirdine was prepared at concentrations of 2.5, 7.5, 25 and 37.5 mg/ml which when injected i.m. at a volume of 100 μL for a rat of 250 g results in doses of 1, 3, 10 and 15 mg/kg respectively.
Study design and dosing: The rats were randomly assigned to one of the different experimental groups. Each animal was identified by its group name, cage number, series (day) of experiment, and a number (from 1 to 4) written with permanent ink on its tail. They were handled by an experimenter for about 3 min each day during 1 week prior to the day of EPM trial.
The apparatus is a PVC maze covered with Plexiglas and subdivided into four equal exploratory arms (40×10 cm), which are all interconnected by a small platform (10×10 cm). The apparatus is placed 65 cm above the floor. Two arms are opened, and two others are closed with wall (high: 10 cm).
After compound administration, rat is placed on the platform opposite a closed arm. The number of entries and the time spent in each arm are recorded during a 5 min period. The animal is considered as entered in an arm when it places its four paws in the arm.
Statistical analysis: Data was analyzed using One-Way ANOVA followed by multiple comparison with Dunnett's post-hoc test. All statistical analyses were performed using GraphPad Prism software package (Version 9) and p value below 0.05 was considered as significant.

[3] = test system: rat forced swim test model (depressive-like behavior); experiment: Forced swim test in dark phase (Example 4); type: in vivo, Sprague Dawley rats; settings: 30 mg/kg, p.o.; versus vehicle saline, 5 minutes observation
Text: Animal groups: Male Sprague Dawley (SD) rats (8-10 weeks old) were grouped housed 2 per cage in standard animal cages with facilities for pelleted food and drinking water in polycarbonate bottle with stainless steel sipper tubes. During the experimental period, animals were housed in a single experimental room. Rats were distributed in 7 different experimental groups with 9-12 rats per group as illustrated in Table 8. Animals were distributed to different groups based on body weight data. Each experimental group was also coded so that the experimenter became unaware of the true experimental group at the time FST trial.
Animals were housed in an environment-controlled room at 22±3° C. and relative humidity of 30 to 70 percent. During the study, 12/12 light/dark cycles were maintained. Lights of the acclimatization area were switched off at 06:00 PM. All experiments were carried out at ambient temperature under dark phase of lighting (between 06:00 PM to 06:00 AM). Adequate fresh air supply of 12-15 air changes/hour was maintained in the experimental room. The maximum and minimum temperature and relative humidity in the experimental rooms was recorded once daily. The relative humidity in the experimental room was calculated daily from dry and wet bulb temperature recordings.
Swim 1 was carried out between 18:30 to 21:30.
Swim 2 was carried out between 19:30 to 21:30. Animals were administered test compounds from 18:30 onwards in staggered manner 60 minutes before FST 2.
Forced swim test was carried out in dark phase
On Day 1, animals were subjected to forced swim test training for 15 minutes (Swim 1) and on Day 2, Swim 2 was carried out post treatment.
On day 2 animals were dosed with respective treatment 60 min prior to performing FST.
Forced swim test (Swim 2) was scored manually with no video recording.
Forced swim test (FST), was used to study the depressive-like behavior in rodents. The test was carried out in transparent cylindrical glass containers measuring 46 cm in height and 20 cm in diameter.
There were 2 swim sessions, 24 h apart. The first session, Swim 1 was the pretest/training stage (15 min) and the second session, Swim 2, was the test stage (8 min).
In swim 2, first 1-minute data was excluded from analysis and rest 7 minutes data was considered. In 7 minutes, data, it was divided 5 minutes and 2 minute.
Twenty-four hours after the start of Swim 1, the test swim (Swim 2) was carried out.
Rat was placed in the water-filled cylinder for 8 min (Swim 2).
The duration of time spent immobile, swimming, and climbing was observed by an observer blind to the treatment group.
Immobility period: A rat was judged to be immobile when it remained floating in the water without struggling and was making only those movements necessary to keep its head above water.
Statistical analysis: One Way ANOVA, Dunnet's multiple comparison test was applied with respect to vehicle saline and Tukey's multiple comparison test was applied to compare the data in between the groups using GraphPad Prism version 9 software.

[4] = test system: mouse behavior (SmartCube signature); experiment: SmartCube system behavioral classification (Example 6); type: in vivo, Male C57/B16 mice; settings: IP
Text: Dexmedetomidine and latrepirdine have anti-psychotic effects, when tested in the SmartCube® system (Psychogenics, Inc., Paramus, NJ; See also U.S. Pat. No. 7,580,798 incorporated herein by reference in its entirety). This system uses features derived from mouse behavioral data to first, classify mice on compound versus vehicle. This measure indicates how well the system can differentiate between a mouse on compound versus a mouse on vehicle. Secondly, by comparing the features to a proprietary reference database of behavioral feature sets that are linked to classes of marketed drugs known to treat neuro-psychiatric symptoms SmartCube® assigns a signature to the behavior. Thus, the system can be used as a model to identify both the activity and the psychiatric effect of a compound by comparing the effects of the compounds against drugs with known validated effects.
By comparing the responses of animals to known drugs, the test drug can be categorized according to its function; for example, hallucinogen, anxiogenic, analgesic, cognitive enhancer, psychostimulant, mood stabilizer, high dose anti-psychotic, anti-psychotic, sedative/hypnotic, anxiolytic, high dose antidepressant, antidepressant.
Once all features are extracted from the raw data through an automated pipeline, proprietary bioinformatics algorithms are used to decorrelate groups of features and find the combination of values that best separate different groups of interest. For each compound, at each dose, they system provides a probability that the drug is active and breaks down such putative activity into the different classes of interest.
SmartCube reference data used herein include anti-psychotics and anti-depressants tested at several dose ranges. “Anti-psychotic” versus “high dose anti-psychotic” as indicated in the legend, reflects the notion that anti-psychotics reference data is dose dependent. Anti-psychotics, when administered at higher doses, can engage additional receptor systems, and thus affect mouse behavior differently. The same applies for different doses of anti-depressants.
Animals: Male C57/B16 mice (N=12 per group) from Taconic Laboratories were used. Upon receipt, mice were group-housed in OPTI mouse ventilated cages with 4 mice per cage. Mice were acclimated to the colony room for at least one week prior to test and subsequently tested at approximately 8-9 weeks of age. All animals were examined, handled, and weighed prior to initiation of the study to assure adequate health and suitability and to minimize non-specific stress associated with manipulation.
All compounds tested were formulated in NP3 (vehicle solution): 5% Pharmasolve; 30% P3 (1:1:1 PEG200: PEG400: propylene glycol); 65% saline; pH is 5.1-6.
Test groups were: • Vehicle: NP3 • Dexmedetomidine at 0.005 and 0.010 mg/kg • Latrepirdine at 1 and 10 mg/kg • Dexmedetomidine and latrepirdine combinations (in mg/kg): 0.005/1.0; 0.005/10; 0.010/1.0; 0.010/10
Test compounds were injected intraperitoneally (IP) for 15 min before animals were placed in SmartCube for assessment.
Antipsychotic: SmartCube classifies the mouse behavior with test compound as similar to treatment with marketed anti-psychotics at therapeutically relevant doses.
High Dose Antipsychotic: SmartCube classifies the mouse behavior on test compound as similar to treatment with marketed anti-psychotics at doses that are considered as high therapeutically. High doses of anti-psychotics often cause sedation.
The results for the class analyses are presented as standardized bar charts with percentages that sum to 100 for each dose. The percentage indicates the probability the classifier can differentiate between the vehicle group and test group. The pattern indicates what class signature was assigned.

[5] = diazepam 1 mg/kg, i.p., yohimbine hydrochloride 2.5 mg/kg i.p.

SMILES: CN1C(=O)CN=C(c2ccccc2)c2cc(Cl)ccc21 [Diazepam]
- Percent increase as referred to the Vehicle level, Entries [1, 5]: 294%
- Percent increase as referred to the Vehicle level, Time [1, 5]: 642%
- Entries, % increase as compared to CCK-4/Vehicle [2]: (400.00) **** %
- Entries, Mean ± SEM [2]: 9.5±0.5 n
- Time, % increase as compared to CCK-4/Vehicle [2]: (652.27) **** %
- Time, Mean ± SEM [2]: 99.3 ± 3.8 s

SMILES: CNCCCN1c2ccccc2CCc2ccccc21 [desipramine hydrochloride]
- climbing time [3]: increase
- immobility time [3]: significant decrease
- swimming time [3]: failed to show any significant effect

SMILES: COC(=O)[C@@H]1[C@H]2C[C@H]3c4[nH]c5ccccc5c4CCN3C[C@@H]2CC[C@@H]1O [yohimbine]
- number of visits to and time spent into the open arms versus vehicle-treated saline rats ([1]; yohimbine 2.5 mg/kg i.p.): marked significant decrease

SMILES: Cc1cccc([C@H](C)c2cnc[nH]2)c1C [dexmedetomidine, (+) 4-(S)-[1-(2,3-dimethylphenyl)ethyl]-1H-imidazole]
- SmartCube signature ([4]; 0.005 and 0.010 mg/kg): antipsychotic signature
- SmartCube total activity ([4]; dexmedetomidine 0.005 mg/kg): 9%
- SmartCube total activity ([4]; dexmedetomidine 0.010 mg/kg): 40%
